This note sets out measurements from ChEMBL document CHEMBL5442219.

Structures are written as SMILES.

What all share (settings): Compound concentration 10 µM
The target in assay [1] is Histamine H3 receptor (Homo sapiens) (UniProt Q9Y5N1).
Description: PDSP Primary Binding target: HRH3 - Compounds are tested at 10 uM concentration, plate are incubated at room temperature in the dark for 90 minutes. Reaction are stopped by vacuum filtration onto 0.3% polyethyleneimine soaked filter mats using Filtermate harvester. Scintilation cocktail is then melted onto microwave-dried filters on a hot plate and the radio activity is counted in Microbia counter.
Assay [2] concerns the target Histamine H1 receptor (Homo sapiens) (UniProt P35367).
Description: PDSP Primary Binding target: HRH1 - Compounds are tested at 10 uM concentration, plate are incubated at room temperature in the dark for 90 minutes. Reaction are stopped by vacuum filtration onto 0.3% polyethyleneimine soaked filter mats using Filtermate harvester. Scintilation cocktail is then melted onto microwave-dried filters on a hot plate and the radio activity is counted in Microbia counter.
Assay [3] has as its target 5-hydroxytryptamine receptor 1B (Homo sapiens) (UniProt P28222).
Description: PDSP Primary Binding target: HTR1B - Compounds are tested at 10 uM concentration, plate are incubated at room temperature in the dark for 90 minutes. Reaction are stopped by vacuum filtration onto 0.3% polyethyleneimine soaked filter mats using Filtermate harvester. Scintilation cocktail is then melted onto microwave-dried filters on a hot plate and the radio activity is counted in Microbia counter.
Assay [4] deals with T1, 5-hydroxytryptamine receptor 1A (Homo sapiens) (UniProt P08908).
T1 sequence (whole entry): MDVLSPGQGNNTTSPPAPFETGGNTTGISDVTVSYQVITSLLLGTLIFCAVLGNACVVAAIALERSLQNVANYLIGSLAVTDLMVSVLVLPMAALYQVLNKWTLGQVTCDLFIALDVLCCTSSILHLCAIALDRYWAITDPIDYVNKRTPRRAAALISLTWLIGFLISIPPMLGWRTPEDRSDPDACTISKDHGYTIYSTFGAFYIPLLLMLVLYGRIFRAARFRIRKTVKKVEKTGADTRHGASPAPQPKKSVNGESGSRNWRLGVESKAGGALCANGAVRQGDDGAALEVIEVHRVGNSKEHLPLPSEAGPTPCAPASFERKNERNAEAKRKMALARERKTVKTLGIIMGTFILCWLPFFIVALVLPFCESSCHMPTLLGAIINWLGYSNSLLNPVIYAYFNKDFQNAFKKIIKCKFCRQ
Description: PDSP Primary Binding target: HTR1A - Compounds are tested at 10 uM concentration, plate are incubated at room temperature in the dark for 90 minutes. Reaction are stopped by vacuum filtration onto 0.3% polyethyleneimine soaked filter mats using Filtermate harvester. Scintilation cocktail is then melted onto microwave-dried filters on a hot plate and the radio activity is counted in Microbia counter.

The target in assay [5] is Mu-type opioid receptor (Homo sapiens) (UniProt P35372).
Description: PDSP Primary Binding target: OPRM1 - Compounds are tested at 10 uM concentration, plate are incubated at room temperature in the dark for 90 minutes. Reaction are stopped by vacuum filtration onto 0.3% polyethyleneimine soaked filter mats using Filtermate harvester. Scintilation cocktail is then melted onto microwave-dried filters on a hot plate and the radio activity is counted in Microbia counter.
For assay [6], the target named is Histamine H2 receptor (Homo sapiens) (UniProt P25021).
Description: PDSP Primary Binding target: HRH2 - Compounds are tested at 10 uM concentration, plate are incubated at room temperature in the dark for 90 minutes. Reaction are stopped by vacuum filtration onto 0.3% polyethyleneimine soaked filter mats using Filtermate harvester. Scintilation cocktail is then melted onto microwave-dried filters on a hot plate and the radio activity is counted in Microbia counter.
The target of assay [7] is Sodium-dependent dopamine transporter (Homo sapiens) (UniProt Q01959).
Description: PDSP Primary Binding target: SLC6A3 - Compounds are tested at 10 uM concentration, plate are incubated at room temperature in the dark for 90 minutes. Reaction are stopped by vacuum filtration onto 0.3% polyethyleneimine soaked filter mats using Filtermate harvester. Scintilation cocktail is then melted onto microwave-dried filters on a hot plate and the radio activity is counted in Microbia counter.
The target of assay [8] is 5-hydroxytryptamine receptor 1D (Homo sapiens) (UniProt P28221).
Description: PDSP Primary Binding target: HTR1D - Compounds are tested at 10 uM concentration, plate are incubated at room temperature in the dark for 90 minutes. Reaction are stopped by vacuum filtration onto 0.3% polyethyleneimine soaked filter mats using Filtermate harvester. Scintilation cocktail is then melted onto microwave-dried filters on a hot plate and the radio activity is counted in Microbia counter.
In assay [9] the target is Sodium-dependent serotonin transporter (Homo sapiens) (UniProt P31645).
Description: PDSP Primary Binding target: SLC6A4 - Compounds are tested at 10 uM concentration, plate are incubated at room temperature in the dark for 90 minutes. Reaction are stopped by vacuum filtration onto 0.3% polyethyleneimine soaked filter mats using Filtermate harvester. Scintilation cocktail is then melted onto microwave-dried filters on a hot plate and the radio activity is counted in Microbia counter.
The target in assay [10] is 5-hydroxytryptamine receptor 2A (Homo sapiens) (UniProt P28223).
Description: PDSP Primary Binding target: HTR2A - Compounds are tested at 10 uM concentration, plate are incubated at room temperature in the dark for 90 minutes. Reaction are stopped by vacuum filtration onto 0.3% polyethyleneimine soaked filter mats using Filtermate harvester. Scintilation cocktail is then melted onto microwave-dried filters on a hot plate and the radio activity is counted in Microbia counter.
Assay [11] addresses 5-hydroxytryptamine receptor 1E (Homo sapiens) (UniProt P28566).
Description: PDSP Primary Binding target: HTR1E - Compounds are tested at 10 uM concentration, plate are incubated at room temperature in the dark for 90 minutes. Reaction are stopped by vacuum filtration onto 0.3% polyethyleneimine soaked filter mats using Filtermate harvester. Scintilation cocktail is then melted onto microwave-dried filters on a hot plate and the radio activity is counted in Microbia counter.
In assay [12] the target is T2, Alpha-1A adrenergic receptor (Homo sapiens) (UniProt P35348).
T2 sequence (whole entry): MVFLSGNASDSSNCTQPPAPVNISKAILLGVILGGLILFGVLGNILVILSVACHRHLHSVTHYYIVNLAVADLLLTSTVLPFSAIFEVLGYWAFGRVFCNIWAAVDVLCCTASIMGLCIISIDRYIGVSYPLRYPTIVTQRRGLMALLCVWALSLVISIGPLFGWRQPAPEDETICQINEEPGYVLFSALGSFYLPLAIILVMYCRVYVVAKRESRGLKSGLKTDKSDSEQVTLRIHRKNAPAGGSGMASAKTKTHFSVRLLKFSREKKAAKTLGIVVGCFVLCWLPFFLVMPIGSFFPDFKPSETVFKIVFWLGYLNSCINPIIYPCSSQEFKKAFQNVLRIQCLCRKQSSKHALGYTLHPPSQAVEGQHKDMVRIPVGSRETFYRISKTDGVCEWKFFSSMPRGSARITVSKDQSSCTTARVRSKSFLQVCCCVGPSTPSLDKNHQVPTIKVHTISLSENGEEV
Description: PDSP Primary Binding target: ADRA1A - Compounds are tested at 10 uM concentration, plate are incubated at room temperature in the dark for 90 minutes. Reaction are stopped by vacuum filtration onto 0.3% polyethyleneimine soaked filter mats using Filtermate harvester. Scintilation cocktail is then melted onto microwave-dried filters on a hot plate and the radio activity is counted in Microbia counter.

The target of assay [13] is T3, Muscarinic acetylcholine receptor M5 (Homo sapiens) (UniProt P08912).
T3 sequence (whole entry): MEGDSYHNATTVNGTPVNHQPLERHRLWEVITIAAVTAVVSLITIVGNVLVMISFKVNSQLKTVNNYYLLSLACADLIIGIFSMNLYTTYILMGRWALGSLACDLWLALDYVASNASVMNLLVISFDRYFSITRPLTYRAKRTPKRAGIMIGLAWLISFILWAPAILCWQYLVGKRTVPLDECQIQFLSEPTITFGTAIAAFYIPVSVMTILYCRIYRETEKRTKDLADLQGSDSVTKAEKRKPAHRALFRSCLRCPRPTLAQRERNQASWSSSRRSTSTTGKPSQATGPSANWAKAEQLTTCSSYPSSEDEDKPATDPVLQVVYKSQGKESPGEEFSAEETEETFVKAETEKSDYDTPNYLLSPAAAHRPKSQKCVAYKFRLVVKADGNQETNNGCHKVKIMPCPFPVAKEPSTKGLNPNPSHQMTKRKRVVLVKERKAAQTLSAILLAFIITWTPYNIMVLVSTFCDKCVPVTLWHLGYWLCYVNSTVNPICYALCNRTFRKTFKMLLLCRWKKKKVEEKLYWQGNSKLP
Description: PDSP Primary Binding target: CHRM5 - Compounds are tested at 10 uM concentration, plate are incubated at room temperature in the dark for 90 minutes. Reaction are stopped by vacuum filtration onto 0.3% polyethyleneimine soaked filter mats using Filtermate harvester. Scintilation cocktail is then melted onto microwave-dried filters on a hot plate and the radio activity is counted in Microbia counter.

The target of assay [14] is T4, Alpha-1D adrenergic receptor (Homo sapiens) (UniProt P25100).
T4 sequence (whole entry): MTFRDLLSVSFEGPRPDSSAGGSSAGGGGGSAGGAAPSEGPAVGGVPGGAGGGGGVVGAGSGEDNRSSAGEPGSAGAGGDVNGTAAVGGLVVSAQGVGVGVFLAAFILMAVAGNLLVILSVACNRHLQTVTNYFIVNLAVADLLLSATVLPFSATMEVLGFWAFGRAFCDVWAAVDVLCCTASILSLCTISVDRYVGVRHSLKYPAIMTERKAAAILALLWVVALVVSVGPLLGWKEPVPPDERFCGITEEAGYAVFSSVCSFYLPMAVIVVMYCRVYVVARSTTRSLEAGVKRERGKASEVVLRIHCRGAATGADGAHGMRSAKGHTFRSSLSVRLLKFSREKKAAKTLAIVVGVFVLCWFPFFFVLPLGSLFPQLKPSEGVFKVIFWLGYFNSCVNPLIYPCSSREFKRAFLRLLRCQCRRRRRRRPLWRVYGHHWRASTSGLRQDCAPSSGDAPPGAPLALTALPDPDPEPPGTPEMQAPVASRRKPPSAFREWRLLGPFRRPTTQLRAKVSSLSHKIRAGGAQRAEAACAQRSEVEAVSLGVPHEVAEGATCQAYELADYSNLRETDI
Description: PDSP Primary Binding target: ADRA1D - Compounds are tested at 10 uM concentration, plate are incubated at room temperature in the dark for 90 minutes. Reaction are stopped by vacuum filtration onto 0.3% polyethyleneimine soaked filter mats using Filtermate harvester. Scintilation cocktail is then melted onto microwave-dried filters on a hot plate and the radio activity is counted in Microbia counter.

Assay [15] has as its target 5-hydroxytryptamine receptor 5A (Homo sapiens) (UniProt P47898).
Description: PDSP Primary Binding target: HTR5A - Compounds are tested at 10 uM concentration, plate are incubated at room temperature in the dark for 90 minutes. Reaction are stopped by vacuum filtration onto 0.3% polyethyleneimine soaked filter mats using Filtermate harvester. Scintilation cocktail is then melted onto microwave-dried filters on a hot plate and the radio activity is counted in Microbia counter.

Sodium-dependent dopamine transporter (Homo sapiens), sequence (Q01959 whole entry): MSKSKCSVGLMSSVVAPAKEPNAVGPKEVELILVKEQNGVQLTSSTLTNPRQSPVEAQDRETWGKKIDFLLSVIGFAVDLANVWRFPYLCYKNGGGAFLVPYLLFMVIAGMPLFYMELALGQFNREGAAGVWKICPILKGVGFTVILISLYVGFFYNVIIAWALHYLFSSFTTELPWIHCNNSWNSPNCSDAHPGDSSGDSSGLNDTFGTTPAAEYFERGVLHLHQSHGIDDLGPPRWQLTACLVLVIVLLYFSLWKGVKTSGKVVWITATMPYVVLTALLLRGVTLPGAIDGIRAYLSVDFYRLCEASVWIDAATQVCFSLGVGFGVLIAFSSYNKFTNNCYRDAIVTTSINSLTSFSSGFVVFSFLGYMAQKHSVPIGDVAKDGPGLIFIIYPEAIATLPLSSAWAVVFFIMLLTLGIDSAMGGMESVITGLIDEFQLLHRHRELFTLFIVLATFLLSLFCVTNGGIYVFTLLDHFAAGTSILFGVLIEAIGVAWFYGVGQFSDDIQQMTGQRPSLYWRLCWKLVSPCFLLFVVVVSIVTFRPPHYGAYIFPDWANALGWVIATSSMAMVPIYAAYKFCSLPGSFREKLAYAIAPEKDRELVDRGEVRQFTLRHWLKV
Mu-type opioid receptor (Homo sapiens), sequence (P35372 whole entry): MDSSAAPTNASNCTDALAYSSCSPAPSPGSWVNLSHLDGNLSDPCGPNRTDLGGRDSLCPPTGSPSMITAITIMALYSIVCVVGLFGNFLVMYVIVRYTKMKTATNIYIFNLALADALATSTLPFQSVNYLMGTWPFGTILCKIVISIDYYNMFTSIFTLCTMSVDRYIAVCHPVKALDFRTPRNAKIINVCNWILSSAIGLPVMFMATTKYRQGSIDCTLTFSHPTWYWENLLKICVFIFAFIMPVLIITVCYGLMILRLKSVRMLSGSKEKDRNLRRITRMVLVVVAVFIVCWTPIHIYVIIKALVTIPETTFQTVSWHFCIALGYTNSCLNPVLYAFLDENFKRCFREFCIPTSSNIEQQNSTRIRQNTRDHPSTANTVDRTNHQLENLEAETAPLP
5-hydroxytryptamine receptor 1B (Homo sapiens), sequence (P28222 whole entry): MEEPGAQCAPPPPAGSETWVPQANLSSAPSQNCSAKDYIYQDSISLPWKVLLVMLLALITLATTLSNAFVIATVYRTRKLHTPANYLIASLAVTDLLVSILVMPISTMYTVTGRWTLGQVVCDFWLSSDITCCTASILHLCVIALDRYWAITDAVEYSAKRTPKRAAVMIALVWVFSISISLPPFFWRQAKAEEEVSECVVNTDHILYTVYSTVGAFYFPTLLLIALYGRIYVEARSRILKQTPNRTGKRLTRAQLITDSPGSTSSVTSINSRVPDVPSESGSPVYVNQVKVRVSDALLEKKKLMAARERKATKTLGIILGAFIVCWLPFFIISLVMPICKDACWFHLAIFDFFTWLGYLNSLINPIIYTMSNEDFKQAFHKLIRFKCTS
5-hydroxytryptamine receptor 5A (Homo sapiens), sequence (P47898 whole entry): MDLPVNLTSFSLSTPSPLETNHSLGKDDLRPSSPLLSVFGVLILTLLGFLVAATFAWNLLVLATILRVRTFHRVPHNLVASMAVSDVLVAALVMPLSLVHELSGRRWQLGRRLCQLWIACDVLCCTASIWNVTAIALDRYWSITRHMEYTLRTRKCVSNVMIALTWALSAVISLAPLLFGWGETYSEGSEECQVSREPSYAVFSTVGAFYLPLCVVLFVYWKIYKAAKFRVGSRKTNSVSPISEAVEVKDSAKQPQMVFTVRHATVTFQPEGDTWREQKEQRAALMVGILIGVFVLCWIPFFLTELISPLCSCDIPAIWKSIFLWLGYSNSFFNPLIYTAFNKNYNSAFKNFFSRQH
Sodium-dependent serotonin transporter (Homo sapiens), sequence (P31645 whole entry, looked up): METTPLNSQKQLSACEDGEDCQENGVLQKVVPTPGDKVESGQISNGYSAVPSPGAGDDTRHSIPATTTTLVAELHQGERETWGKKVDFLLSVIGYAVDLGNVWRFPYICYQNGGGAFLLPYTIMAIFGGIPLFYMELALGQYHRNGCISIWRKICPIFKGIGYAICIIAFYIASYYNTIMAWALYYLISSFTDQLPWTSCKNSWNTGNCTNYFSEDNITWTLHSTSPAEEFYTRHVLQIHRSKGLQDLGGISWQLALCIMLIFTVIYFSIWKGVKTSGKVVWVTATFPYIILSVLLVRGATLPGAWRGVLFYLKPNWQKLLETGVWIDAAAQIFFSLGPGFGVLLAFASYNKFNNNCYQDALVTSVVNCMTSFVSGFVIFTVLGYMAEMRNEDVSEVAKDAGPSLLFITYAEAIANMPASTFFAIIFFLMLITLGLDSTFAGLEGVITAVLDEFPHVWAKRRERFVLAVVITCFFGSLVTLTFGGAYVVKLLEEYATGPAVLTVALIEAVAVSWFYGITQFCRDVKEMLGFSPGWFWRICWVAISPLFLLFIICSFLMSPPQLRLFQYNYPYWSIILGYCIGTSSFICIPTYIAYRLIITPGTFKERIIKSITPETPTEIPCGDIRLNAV
5-hydroxytryptamine receptor 1E (Homo sapiens), sequence (P28566 whole entry): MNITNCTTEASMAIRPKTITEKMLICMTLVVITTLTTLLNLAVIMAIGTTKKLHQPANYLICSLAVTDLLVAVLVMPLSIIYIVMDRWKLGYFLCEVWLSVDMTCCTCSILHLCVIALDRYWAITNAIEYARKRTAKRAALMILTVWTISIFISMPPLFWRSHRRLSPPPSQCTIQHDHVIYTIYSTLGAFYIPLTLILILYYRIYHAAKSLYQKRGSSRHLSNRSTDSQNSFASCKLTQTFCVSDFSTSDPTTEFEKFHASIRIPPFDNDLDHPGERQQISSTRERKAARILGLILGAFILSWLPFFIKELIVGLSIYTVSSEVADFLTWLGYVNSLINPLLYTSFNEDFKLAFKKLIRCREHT
5-hydroxytryptamine receptor 2A (Homo sapiens), sequence (P28223 whole entry): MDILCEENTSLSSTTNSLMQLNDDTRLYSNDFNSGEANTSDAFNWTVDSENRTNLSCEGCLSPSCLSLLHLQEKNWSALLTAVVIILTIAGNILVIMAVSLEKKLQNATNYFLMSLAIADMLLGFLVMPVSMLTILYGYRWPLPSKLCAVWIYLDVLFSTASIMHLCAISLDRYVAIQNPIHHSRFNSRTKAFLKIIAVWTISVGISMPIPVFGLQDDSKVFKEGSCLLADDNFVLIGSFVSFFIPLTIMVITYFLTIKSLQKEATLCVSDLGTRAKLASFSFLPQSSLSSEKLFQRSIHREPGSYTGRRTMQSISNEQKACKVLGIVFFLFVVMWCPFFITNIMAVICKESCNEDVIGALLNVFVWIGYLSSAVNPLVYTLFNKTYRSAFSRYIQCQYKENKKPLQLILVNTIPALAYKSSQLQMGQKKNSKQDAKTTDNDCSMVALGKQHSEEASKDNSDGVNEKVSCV
5-hydroxytryptamine receptor 1D (Homo sapiens), sequence (P28221 whole entry): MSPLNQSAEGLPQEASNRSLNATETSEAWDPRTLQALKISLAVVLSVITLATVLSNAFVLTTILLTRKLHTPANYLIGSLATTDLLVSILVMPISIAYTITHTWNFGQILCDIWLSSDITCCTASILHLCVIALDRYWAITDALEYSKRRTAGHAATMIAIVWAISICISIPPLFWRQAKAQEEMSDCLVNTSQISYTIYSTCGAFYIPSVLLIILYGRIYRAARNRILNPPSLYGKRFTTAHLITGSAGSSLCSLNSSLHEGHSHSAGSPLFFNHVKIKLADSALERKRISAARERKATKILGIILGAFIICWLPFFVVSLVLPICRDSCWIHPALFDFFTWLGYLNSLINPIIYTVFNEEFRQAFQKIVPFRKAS
Histamine H2 receptor (Homo sapiens), sequence (P25021 whole entry): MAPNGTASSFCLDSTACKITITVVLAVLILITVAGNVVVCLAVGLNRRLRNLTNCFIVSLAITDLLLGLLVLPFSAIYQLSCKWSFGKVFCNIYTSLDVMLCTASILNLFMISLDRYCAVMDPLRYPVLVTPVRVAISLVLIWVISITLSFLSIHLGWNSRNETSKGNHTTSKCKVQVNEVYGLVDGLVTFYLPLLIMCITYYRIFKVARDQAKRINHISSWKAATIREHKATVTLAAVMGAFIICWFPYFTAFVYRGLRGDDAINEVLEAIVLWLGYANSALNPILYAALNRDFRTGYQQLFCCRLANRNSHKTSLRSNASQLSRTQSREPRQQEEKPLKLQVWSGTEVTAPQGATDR
Histamine H3 receptor (Homo sapiens), sequence (Q9Y5N1 whole entry): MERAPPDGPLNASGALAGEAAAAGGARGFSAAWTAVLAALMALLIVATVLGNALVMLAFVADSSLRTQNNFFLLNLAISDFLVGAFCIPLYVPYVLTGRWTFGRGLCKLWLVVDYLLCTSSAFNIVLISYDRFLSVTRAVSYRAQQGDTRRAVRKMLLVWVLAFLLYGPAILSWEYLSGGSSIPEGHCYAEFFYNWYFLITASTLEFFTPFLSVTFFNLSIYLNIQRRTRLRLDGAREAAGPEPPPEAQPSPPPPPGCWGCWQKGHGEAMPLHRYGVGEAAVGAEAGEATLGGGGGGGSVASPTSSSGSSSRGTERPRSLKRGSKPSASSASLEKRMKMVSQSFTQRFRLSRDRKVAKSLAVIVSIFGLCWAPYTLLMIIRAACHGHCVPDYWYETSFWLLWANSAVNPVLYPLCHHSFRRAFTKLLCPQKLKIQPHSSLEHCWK
Histamine H1 receptor (Homo sapiens), sequence (P35367 whole entry): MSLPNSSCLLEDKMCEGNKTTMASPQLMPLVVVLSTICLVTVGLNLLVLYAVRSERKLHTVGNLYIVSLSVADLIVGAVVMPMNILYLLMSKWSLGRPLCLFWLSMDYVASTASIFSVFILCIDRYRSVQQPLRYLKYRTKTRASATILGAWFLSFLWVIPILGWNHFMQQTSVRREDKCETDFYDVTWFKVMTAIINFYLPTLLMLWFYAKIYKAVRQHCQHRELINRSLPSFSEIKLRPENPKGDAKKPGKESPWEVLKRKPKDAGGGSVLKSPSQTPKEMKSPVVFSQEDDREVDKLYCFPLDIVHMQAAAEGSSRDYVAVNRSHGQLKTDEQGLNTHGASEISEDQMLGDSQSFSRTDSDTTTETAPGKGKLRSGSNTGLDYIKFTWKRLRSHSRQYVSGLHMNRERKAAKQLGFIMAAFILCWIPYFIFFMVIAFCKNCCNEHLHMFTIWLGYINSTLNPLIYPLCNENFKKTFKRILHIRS

Take `O=c1ccn([C@@H]2O[C@H](COP(=O)(O)OP(=O)(O)O)[C@@H](O)[C@H]2O)c(=O)[nH]1`: the inhibition was 7.28% in assay [1]; 34.8% in assay [2]; 1.75% in assay [3]; 5.47% in assay [4]; 44% in assay [5]; -7.58% in [6]. Moreover, the inhibition was 6.84% in assay [7]; -5.04% in assay [8]; 21.1% in [9]; 10.7% in [10]; 9.09% in assay [11]; -6.92% in assay [12]. Further, in assay [13], the inhibition was -9.39%.

In the case of `CCCCCNC(=N)N/N=C/c1c[nH]c2ccc(OC)cc12`, the inhibition in [1] was 19%; in [2], 31.1%; in assay [14], 55.8%; in assay [3] it was 96.3%; in assay [4] it was 101%; in assay [5], 63.9%. Further, the inhibition is 23.9% in [6]; 97.6% in assay [15]; 69.1% in [7]; 76.3% in assay [8]; 57.7% in assay [9]; 93.7% in assay [10]. Further, the inhibition in [11] was 20.5%; in assay [12], 53.9%; in assay [13] it was 8.93%.

For `CCOC(=O)c1c(C)[nH]c2ccc3c(c12)CN1CCc2cc(OC)ccc2C1O3` (configuration not stated), the inhibition in [1] was -2.82%; in [2], 24.9%; in assay [14], 36.5%; in assay [3], 54%; in assay [5] it was 56.5%; in assay [6], 57.5%. Also, the inhibition is 31% in [15]; 82.9% in assay [7]; 14.9% in assay [8]; 6.67% in assay [9]; 28.7% in [10]; -6.16% in assay [11]. Also, the values for the inhibition in assay [12] and in assay [13] were 41.3% and 2.39%, respectively.

Take `COc1cc(-n2cnc3cc(-c4ccc(Cl)cc4)sc3c2=O)ccc1OCCN1CCCC1`: the inhibition was 88.9% in assay [1]; 42.2% in [2]; 53.1% in [14]; 42.5% in assay [3]; 8.71% in assay [4]; 37.9% in [5]. For the same compound, the inhibition in [6] is 18.7%; in assay [15], 85.3%; in assay [7], 66.4%; in assay [8], 56.6%; in assay [9], 85.8%; in assay [10], 32.9%. Further, the results for the inhibition in assay [12] and in [13] were 37.3% and 64.9%, respectively.

On to `C[C@@H](NCCCc1cccc(C(F)(F)F)c1)c1cccc2ccccc12`, for which the inhibition in [1] was 18.1%; in [2] it was 12.7%; in assay [14], 28.2%; in [3], 27.5%; in [4], 87.7%; in assay [5], 78.3%. The inhibition in [6] was 62.1%; in [15] it was 81.9%; in [7], 70.4%; in [8], 61.5%; in assay [9], 62.7%; in assay [10] it was 80.6%. In addition, the inhibition is 18% in [11], 38.5% in [12] and 7.94% in assay [13].

`Cc1cc(C(=O)N2Cc3cnn(C)c3Nc3ccccc32)ccc1CNC(=O)N1CCC[C@H]1C(=S)N1CCCN(C)CC1`: the inhibition in assay [2] was 24.4%; in assay [3], 20.7%; in assay [4], -3.18%; in assay [5], 12.3%; in [6], 46.9%; in [15], 35%. The inhibition in assay [7] was 19.8%; in assay [9] it was -2.9%; in [10] it was 9.68%; in [11], 4.73%; in assay [12], -5.86%; in [13] it was 83.3%.

Regarding `C[C@H](NC[C@H](O)CP(=O)(O)CC1CCCCC1)c1ccc(Cl)c(Cl)c1`, the inhibition in assay [1] is 17.5%; in assay [2], 9.98%; in assay [14], 8.86%; in assay [4], -7.25%; in [5] it was 60.4%; in [6] it was 26%. For the same compound, the inhibition is -8.92% in assay [15]; 62.1% in assay [7]; -2.56% in assay [9]; -0.59% in assay [10]; -8.21% in [11]; 1.74% in assay [12]. Besides, in [13], the inhibition is 16.6%.

On to `N#Cc1cccc(C(=O)Nc2cc(-c3ccccc3)nn2-c2ccccc2)c1`, for which the inhibition in [1] was 7.12%; in assay [2], -6.18%; in [3], 23.3%; in assay [4] it was 14.8%; in [5] it was 6.88%; in [6], 33%. Moreover, the inhibition in assay [15] was 1.34%; in [7], 2.12%; in assay [9], 6.36%; in [10], 6.53%; in [11], 3.88%; in [12], 4.85%. In addition, the inhibition in assay [13] was 2.45%.

Turning to `CCCCCCCCCCCCCCCCOC[C@H](COP(=O)([O-])OCC[N+](C)(C)C)OC(C)=O`, the inhibition in [1] is -0.67%; in [14], 50.7%; in [3] it was 13.9%; in assay [4], 2.85%; in assay [5], 35.1%; in assay [6] it was 4.45%. Besides, the inhibition is 17.5% in assay [15]; 68.2% in assay [8]; 0.76% in [9]; 2.23% in assay [10]; 11.7% in [11]; 34.5% in assay [12].

In the case of `COc1ccc(S(=O)(=O)c2cc(OC)ccc2S(=O)(=O)c2ccc([C@H](C)NS(C)(=O)=O)cc2)cc1`, the inhibition is -5.89% in assay [2]; -1.73% in assay [3]; 11.3% in [5]; 15.6% in assay [6]; 6.79% in assay [15]; 18.8% in assay [7]. For the same compound, the inhibition in assay [9] is -7.38%; in [10], 31.9%; in assay [11], -6.16%; in [12], 22.6%; in [13] it was -5.9%.

One may read the inhibition as the drop in the measured response relative to a control, in per cent.
